Laboratory results as given in ChEMBL document CHEMBL5344411, “Phenotypic screening-based drug discovery of furan-2-carboxylic acid derivatives for the amelioration of type 2 diabetes mellitus (T2DM)” (Eur J Med Chem, 2023).
The source made the active and inactive calls. The rule behind the calls is not given here.

Legend:
[1] = test system: Hepatocyte; assay: Inhibition of gluconeogenesis in Sprague-Dawley rat hepatocytes at 10 uM incubated for 1.5 hrs followed by sodium pyruvate and sodium lactate addition and measured after 4 hrs by colorimetric analysis relative to control; type: functional; conditions: time 5.5 hrs
[2] = AUC(last) in CD-1 mouse at 1 mg/kg, po by LC-MS/MS analysis; type: ADME, organism-based; set-up: dose 1 mg/kg, route po; conditions: in vivo
[3] = Observed AUCinfinity in CD-1 mouse at 1 mg/kg, po by LC-MS/MS analysis; type: ADME, organism-based; set-up: dose 1 mg/kg, route po; conditions: in vivo
[4] = test system: Mus musculus; assay: Antihyperglycemic activity in diabetic ob/ob mouse assessed as reduction in fasting blood glucose level at 5 mg/kg administered via gavage qd for 24 days and measured on day 24; type: functional; conditions: po, 576 h, time 24 day
[5] = Half life in CD-1 mouse at 10 mg/kg, po by LC-MS/MS analysis; type: ADME, organism-based; conditions: in vivo
[6] = test system: Hepatocyte; assay: Inhibition of gluconeogenesis in Sprague-Dawley rat hepatocytes at 3 uM incubated for 1.5 hrs followed by sodium pyruvate and sodium lactate addition and measured after 4 hrs by colorimetric analysis relative to control; type: functional; conditions: time 5.5 hrs
[7] = Tmax in CD-1 mouse at 3 mg/kg, po by LC-MS/MS analysis; type: ADME, organism-based; conditions: in vivo
[8] = test system: Hepatocyte; assay: Inhibition of gluconeogenesis in Sprague-Dawley rat hepatocytes at 1 uM incubated for 1.5 hrs followed by sodium pyruvate and sodium lactate addition and measured after 4 hrs by colorimetric analysis relative to control; type: functional; conditions: time 5.5 hrs
[9] = Observed MRTinfinity in CD-1 mouse at 1 mg/kg, iv by LC-MS/MS analysis; type: ADME, organism-based; conditions: in vivo
[10] = Observed AUCinfinity in CD-1 mouse at 10 mg/kg, po by LC-MS/MS analysis; type: ADME, organism-based; set-up: dose 10 mg/kg, route po; conditions: in vivo
[11] = AUC(last) in CD-1 mouse at 1 mg/kg, iv by LC-MS/MS analysis; type: ADME, organism-based; set-up: dose 1 mg/kg, route iv; conditions: in vivo
[12] = Half life in CD-1 mouse at 3 mg/kg, po by LC-MS/MS analysis; type: ADME, organism-based; conditions: in vivo
[13] = Cmax in CD-1 mouse at 3 mg/kg, po by LC-MS/MS analysis; type: ADME, organism-based; set-up: dose 3 mg/kg, route po; conditions: in vivo
[14] = test system: Mus musculus; assay: Antihyperglycemic activity in diabetic ob/ob mouse assessed as reduction in non-fasting blood glucose level at 5 mg/kg administered via gavage qd for 24 days and measured on day 24; type: functional; conditions: po, 576 h, time 24 day
[15] = Cmax in CD-1 mouse at 30 mg/kg, po by LC-MS/MS analysis; type: ADME, organism-based; set-up: dose 30 mg/kg, route po; conditions: in vivo
[16] = Oral bioavailability in CD-1 mouse at 1 mg/kg by LC-MS/MS analysis; type: ADME, organism-based; conditions: in vivo
[17] = test system: Mus musculus; assay: Inhibition of gluconeogenesis in CD-1 mouse assessed as decrease in blood glucose level at 50 mg/kg administered via gavage at 1 hr prior to pyruvate sodium challenge and measured for 2 hrs by pyruvate tolerance test; type: functional, organism-based; conditions: time 3.0 hrs
[18] = Tmax in CD-1 mouse at 10 mg/kg, po by LC-MS/MS analysis; type: ADME, organism-based; conditions: in vivo
[19] = Half life in CD-1 mouse at 1 mg/kg, iv by LC-MS/MS analysis; type: ADME, organism-based; conditions: in vivo
[20] = test system: Hepatocyte; assay: Inhibition of gluconeogenesis in Sprague-Dawley rat hepatocytes at 0.3 uM incubated for 1.5 hrs followed by sodium pyruvate and sodium lactate addition and measured after 4 hrs by colorimetric analysis relative to control; type: functional; conditions: time 5.5 hrs
[21] = AUC(last) in CD-1 mouse at 10 mg/kg, po by LC-MS/MS analysis; type: ADME, organism-based; set-up: dose 10 mg/kg, route po; conditions: in vivo
[22] = Observed volume of distribution at steady state in CD-1 mouse at 1 mg/kg, iv by LC-MS/MS analysis; type: ADME, organism-based; conditions: in vivo, read-out: Vdss
[23] = Observed MRTinfinity in CD-1 mouse at 3 mg/kg, po by LC-MS/MS analysis; type: ADME, organism-based; conditions: in vivo
[24] = Observed AUCinfinity in CD-1 mouse at 1 mg/kg, iv by LC-MS/MS analysis; type: ADME, organism-based; set-up: dose 1 mg/kg, route iv; conditions: in vivo
[25] = Observed MRTinfinity in CD-1 mouse at 1 mg/kg, po by LC-MS/MS analysis; type: ADME, organism-based; conditions: in vivo
[26] = Half life in CD-1 mouse at 1 mg/kg, po by LC-MS/MS analysis; type: ADME, organism-based; conditions: in vivo
[27] = Oral bioavailability in CD-1 mouse at 3 mg/kg by LC-MS/MS analysis; type: ADME, organism-based; conditions: in vivo
[28] = Tmax in CD-1 mouse at 30 mg/kg, po by LC-MS/MS analysis; type: ADME, organism-based; conditions: in vivo
[29] = AUC(last) in CD-1 mouse at 30 mg/kg, po by LC-MS/MS analysis; type: ADME, organism-based; set-up: dose 30 mg/kg, route po; conditions: in vivo
[30] = Observed AUCinfinity in CD-1 mouse at 3 mg/kg, po by LC-MS/MS analysis; type: ADME, organism-based; set-up: dose 3 mg/kg, route po; conditions: in vivo
[31] = Observed MRTinfinity in CD-1 mouse at 30 mg/kg, po by LC-MS/MS analysis; type: ADME, organism-based; conditions: in vivo
[32] = Cmax in CD-1 mouse at 1 mg/kg, po by LC-MS/MS analysis; type: ADME, organism-based; set-up: dose 1 mg/kg, route po; conditions: in vivo
[33] = test system: Mus musculus; assay: Inhibition of gluconeogenesis in CD-1 mouse assessed as decrease in blood glucose level at 25 mg/kg administered via gavage at 1 hr prior to pyruvate sodium challenge and measured for 2 hrs by pyruvate tolerance test; type: functional, organism-based; conditions: time 3.0 hrs
[34] = Toxicity in diabetic ob/ob mouse assessed as effect on daily food intake at 5 mg/kg administered via gavage qd for 24 days; type: organism-based; conditions: in vivo, po, 576 h, time 24 day
[35] = Toxicity in diabetic ob/ob mouse assessed as effect on body weight at 5 mg/kg administered via gavage qd for 24 days; type: organism-based; conditions: in vivo, po, 576 h, time 24 day
[36] = Half life in CD-1 mouse at 30 mg/kg, po by LC-MS/MS analysis; type: ADME, organism-based; conditions: in vivo
[37] = Tmax in CD-1 mouse at 1 mg/kg, po by LC-MS/MS analysis; type: ADME, organism-based; conditions: in vivo
[38] = Observed clearance in CD-1 mouse at 1 mg/kg, iv by LC-MS/MS analysis; type: ADME, organism-based; conditions: in vivo
[39] = Observed MRTinfinity in CD-1 mouse at 10 mg/kg, po by LC-MS/MS analysis; type: ADME, organism-based; conditions: in vivo
[40] = Observed AUCinfinity in CD-1 mouse at 30 mg/kg, po by LC-MS/MS analysis; type: ADME, organism-based; set-up: dose 30 mg/kg, route po; conditions: in vivo
[41] = Oral bioavailability in CD-1 mouse at 10 mg/kg by LC-MS/MS analysis; type: ADME, organism-based; conditions: in vivo
[42] = Oral bioavailability in CD-1 mouse at 30 mg/kg by LC-MS/MS analysis; type: ADME, organism-based; conditions: in vivo
[43] = Cmax in CD-1 mouse at 10 mg/kg, po by LC-MS/MS analysis; type: ADME, organism-based; set-up: dose 10 mg/kg, route po; conditions: in vivo
[44] = AUC(last) in CD-1 mouse at 3 mg/kg, po by LC-MS/MS analysis; type: ADME, organism-based; set-up: dose 3 mg/kg, route po; conditions: in vivo
[45] = Toxicity in diabetic ob/ob mouse assessed as effect on body weight at 15 mg/kg administered via gavage qd for 24 days; type: organism-based; conditions: in vivo, po, 576 h, time 24 day
[46] = test system: Mus musculus; assay: Antihyperglycemic activity in diabetic ob/ob mouse assessed as reduction in fasting blood glucose level at 15 mg/kg administered via gavage qd for 24 days and measured on day 24; type: functional, organism-based; conditions: time 24.0 day
[47] = test system: Mus musculus; assay: Antihyperglycemic activity in diabetic ob/ob mouse assessed as reduction in non-fasting blood glucose level at 15 mg/kg administered via gavage qd for 24 days and measured on day 24; type: functional, organism-based; conditions: time 24.0 day
[48] = Toxicity in diabetic ob/ob mouse assessed as effect on daily food intake at 15 mg/kg administered via gavage qd for 24 days; type: organism-based; conditions: in vivo, po, 576 h, time 24 day
[49] = test system: Mus musculus; assay: Inhibition of gluconeogenesis in CD-1 mouse assessed as decrease in blood glucose level at 50 mg/kg administered via gavage at 2 hrs prior to pyruvate sodium challenge and measured for 2 hrs by pyruvate tolerance test; type: functional, organism-based; conditions: time 4.0 hrs

Structure (SMILES): C/C=C/c1ccc(OCc2ccc(C(=O)O)o2)c(OC)c1
- fold change (FC) [1]: 0.93

Structure (SMILES): CCCc1ccc(OCc2ccc(C(=O)O)o2)c(OCC2CC2)c1
- fold change (FC) [1]: 1.16

Structure (SMILES): CCCc1ccc(OCc2ccc(C(=O)O)o2)c(OCCn2cccc2)c1
- fold change (FC) [1]: 1.28

Structure (SMILES): COc1cc(/C=C/C(=O)N(C)C)ccc1OCc1ccc(C(=O)O)o1
- fold change (FC) [1]: 0.77

Structure (SMILES): C=CCc1ccc(OCc2cccc(C(=O)O)n2)c(OC)c1
- fold change (FC) [1]: 1.11

Structure (SMILES): CCCc1ccc(OCc2ccc(C(=O)O)o2)cc1OC
- AUC(0-t) [2]: 678 ng·h/mL
- AUC(0-inf) [3]: 709 ng·h/mL
- inhibition in vivo at 5 mg/kg [4]: 40.5%
- half-life [5]: 3.12 h
- fold change (FC) [6]: 0.16
- Tmax [7]: 0.25 h
- fold change (FC) [8]: 0.64
- MRT inf [9]: 0.798 h
- AUC(0-inf) [10]: 9620 ng·h/mL
- AUC(0-t) [11]: 1220 ng·h/mL
- half-life [12]: 2.26 h
- Cmax [13]: 1460 ng/mL
- inhibition in vivo at 5 mg/kg [14]: 34.9%
- Cmax [15]: 41000 ng/mL
- bioavailability [16]: 55.7%
- inhibition [17]: Active
- Tmax [18]: 0.25 h
- half-life [19]: 0.828 h
- fold change (FC) [20]: 0.75
- AUC(0-t) [21]: 9590 ng·h/mL
- Vd [22]: 0.65 L/kg
- MRT inf [23]: 2.74 h
- AUC(0-inf) [24]: 1250 ng·h/mL
- MRT inf [25]: 2.07 h
- half-life [26]: 1.8 h
- bioavailability [27]: 66.7%
- Tmax [28]: 0.25 h
- AUC(0-t) [29]: 52700 ng·h/mL
- fold change (FC) [1]: 0.03
- AUC(0-inf) [30]: 2480 ng·h/mL
- MRT inf [31]: 1.7 h
- Cmax [32]: 547 ng/mL
- inhibition [33]: Active
- Activity [34]: Non-Toxic
- Activity [35]: Non-Toxic
- half-life [36]: 3.15 h
- Tmax [37]: 0.25 h
- clearance [38]: 13.5 mL/min/kg
- MRT inf [39]: 2.31 h
- AUC(0-inf) [40]: 52800 ng·h/mL
- bioavailability [41]: 78.9%
- bioavailability [42]: 144%
- Cmax [43]: 7580 ng/mL
- AUC(0-t) [44]: 2430 ng·h/mL

Structure (SMILES): C=CCc1ccc(OCc2ccc(C(=O)O)o2)c(OC)c1
- Activity [45]: Non-Toxic
- fold change (FC) [6]: 0.73
- fold change (FC) [8]: 0.92
- Activity [46]: Active
- Activity [47]: Active
- inhibition [17]: Active
- fold change (FC) [20]: 0.96
- fold change (FC) [1]: 0.57
- Activity [48]: Non-Toxic
- inhibition [49]: Active

Structure (SMILES): COc1ccccc1OCc1ccc(C(=O)O)o1
- fold change (FC) [1]: 0.99

Structure (SMILES): C=CCc1ccc(OCc2ccc(C(=O)NCCO)o2)c(OC)c1
- fold change (FC) [1]: 0.82

Structure (SMILES): CCCc1ccc(OC)c(OCc2ccc(C(=O)O)o2)c1
- fold change (FC) [1]: 1.18
